We go through 34 molecules from patent US12398097B2, “WDR5-MYC inhibitors” (Vanderbilt University, priority 2019, dated 2025).

The assay has as its target WDR5 (Homo sapiens, UniProt P61964). Put plainly: Competition-based fluorescence polarization anisotropy assay. To be noted: binding to WDR5; displacement of FITC-labeled small molecule probe (analogous to Example J2 or HCH-25) or peptide probe FITC-AHx-SEEEIDVVSV; pH 6.0; Ki converted from IC50. The procedure: Compounds of the present invention were assessed for their ability to bind to WDr5 using a competition-based fluorescence polarization anisotropy assay, similar to the method previously described. […] Fluorescence polarization measurements were performed in 384-well plates (Greiner Bio One) using a Cytation 3 plate reader (BioTek). Fluorescein isothiocyanate (FITC)-labeled peptide probe ([…]) was purchased from GenScript USA Inc and used without further purification. […] The assay buffer contained 200 mM phosphate, 300 mM NaCl, and 0.5 mM TCEP and 0.1% Chaps at pH 6.0. […] This was converted into a binding dissociation constant (Ki value) according to the formula: […] Data shown in the table below represents a K; determined from this method for each Example, using either a fluorescently labeled small molecule probe analogous to Example J2 or Example HCH-25, or the peptide probe described above, in the assay.
Background: Polarisation of emitted light reports the rotation of a fluorescent probe.
Consider `CNC(=O)c1cc(Cl)cc(NS(=O)(=O)c2cc(Br)ccc2OC)c1O` [Example J44, 3-((5-Bromo-2-methoxyphenyl)sulfonamido)-5-chloro-2-hydroxy-N-methylbenzamide], for which affinity was put at a Ki of 1.26 µM.

With `COCCNC(=O)c1cc(Cl)cc(NS(=O)(=O)c2cc(Br)ccc2OC)c1O` [Example J45, 3-((5-Bromo-2-methoxyphenyl)sulfonamido)-5-chloro-2-hydroxy-N-(2-methoxyethyl)benzamide], the inhibition constant Ki (commonly the equilibrium dissociation constant of an inhibitor or competing ligand from its target) was determined as 0.99 µM.

In turn, `COc1ccc(Br)cc1S(=O)(=O)Nc1cc(Cl)cc(C(=O)N2CCOCC2)c1O` [Example J48, 5-Bromo-N-(5-chloro-2-hydroxy-3-(morpholine-4-carbonyl)phenyl)-2-methoxybenzenesulfonamide] returned a Ki of 6.19 µM.

On to `COc1ccc(Br)cc1S(=O)(=O)Nc1cc(Cl)cc(C(=O)N(C)C)c1O` [Example J50, 3-((5-Bromo-2-methoxyphenyl)sulfonamido)-5-chloro-2-hydroxy-N,N-dimethylbenzamide], for which the Ki is 74.2 µM.

`COCCCNC(=O)c1cc(Cl)cc(NS(=O)(=O)c2cc(Br)ccc2OC)c1O` [Example J51, 3-((5-Bromo-2-methoxyphenyl)sulfonamido)-5-chloro-2-hydroxy-N-(3-methoxypropyl)benzamide] returned a Ki of 2.45 µM.

On to `COc1ccc(Br)cc1S(=O)(=O)Nc1cc(Cl)cc(C(=O)NC2CCOCC2)c1O` [Example J52, 3-((5-Bromo-2-methoxyphenyl)sulfonamido)-5-chloro-2-hydroxy-N-(tetrahydro-2H-pyran-4-yl)benzamide], for which the affinity, expressed as Ki, was 3.95 µM.

In the case of `COc1ccc(Br)cc1S(=O)(=O)Nc1cc(Cl)cc(C(=O)NCCCO)c1O` [Example J53, 3-((5-Bromo-2-methoxyphenyl)sulfonamido)-5-chloro-2-hydroxy-N-(3-hydroxypropyl)benzamide], affinity was put at a Ki of 2.07 µM.

The molecule `COc1ccc(Br)cc1S(=O)(=O)Nc1cc(Cl)cc(C(=O)N2CCC[C@H]2CO)c1O` [Example J54, (S)-5-Bromo-N-(5-chloro-2-hydroxy-3-(2-(hydroxymethyl)pyrrolidine-1-carbonyl)phenyl)-2-methoxybenzenesulfonamide] showed a Ki of 6.84 µM.

As to `COc1ccc(Br)cc1S(=O)(=O)Nc1cc(Cl)cc(C(=O)N2CCC[C@@H]2CO)c1O` [Example J55, (R)-5-Bromo-N-(5-chloro-2-hydroxy-3-(2-(hydroxymethyl)pyrrolidine-1-carbonyl)phenyl)-2-methoxybenzenesulfonamide], the inhibitory constant (Ki) was found to be 8.17 µM.

Molecule `COC[C@@H]1CCCN1C(=O)c1cc(Cl)cc(NS(=O)(=O)c2cc(Br)ccc2OC)c1O` [Example J56, (S)-5-Bromo-N-(5-chloro-2-hydroxy-3-(2-(methoxymethyl)pyrrolidine-1-carbonyl)phenyl)-2-methoxybenzenesulfonamide] returned a Ki of 4.64 µM.

`COC[C@H]1CCCN1C(=O)c1cc(Cl)cc(NS(=O)(=O)c2cc(Br)ccc2OC)c1O` [Example J57, (R)-5-Bromo-N-(5-chloro-2-hydroxy-3-(2-(methoxymethyl)pyrrolidine-1-carbonyl)phenyl)-2-methoxybenzenesulfonamide] showed a Ki of 8.44 µM.

In turn, `COCCN(C)C(=O)c1cc(Cl)cc(NS(=O)(=O)c2cc(Br)ccc2OC)c1O` [Example J58, 3-((5-Bromo-2-methoxyphenyl)sulfonamido)-5-chloro-2-hydroxy-N-(2-methoxyethyl)-N-methylbenzamide] had a Ki of 7.74 µM.

Molecule `COc1ccc(Br)cc1S(=O)(=O)Nc1cc(Cl)cc(C(=O)NCCO)c1O` [Example J59, 3-((5-Bromo-2-methoxyphenyl)sulfonamido)-5-chloro-2-hydroxy-N-(2-hydroxyethyl)benzamide] gave an inhibitory constant (Ki) of 1.17 µM.

In turn, `COc1ccc(Br)cc1S(=O)(=O)Nc1cc(Cl)cc(C(=O)NC2CCOC2)c1O` (stereo not shown) [Example J60, 3-((5-Bromo-2-methoxyphenyl)sulfonamido)-5-chloro-2-hydroxy-N-(tetrahydrofuran-3-yl)benzamide] returned a Ki of 0.94 µM.

Regarding `COc1ccc(Br)cc1S(=O)(=O)Nc1cc(Cl)cc(C(=O)NCCN)c1O` [Example J61, N-(2-Aminoethyl)-3-((5-bromo-2-methoxyphenyl)sulfonamido)-5-chloro-2-hydroxybenzamide], the inhibition constant Ki came out at 2.68 µM.

Consider `COc1ccc(Br)cc1S(=O)(=O)Nc1cc(Cl)cc(C(=O)N2CC(OC)C2)c1O` [Example J62, 5-Bromo-N-(5-chloro-2-hydroxy-3-(3-methoxyazetidine-1-carbonyl)phenyl)-2-methoxybenzenesulfonamide], for which the Ki was 9.36 µM. This Ki lies about 3.5-fold higher than the previous one.

In the case of `COc1ccc(Br)cc1S(=O)(=O)Nc1cc(Cl)cc(C(=O)N2CC(O)C2)c1O` [Example J63, 5-Bromo-N-(5-chloro-2-hydroxy-3-(3-hydroxyazetidine-1-carbonyl)phenyl)-2-methoxybenzenesulfonamide], the affinity corresponds to a Ki of 5.51 µM. Against the preceding molecule, the Ki is about 1.7-fold lower.

Turning to `COc1ccc(Br)cc1S(=O)(=O)Nc1cc(Cl)cc(C(=O)N2CC(S(C)(=O)=O)C2)c1O` [Example J64, 5-Bromo-N-(5-chloro-2-hydroxy-3-(3-(methylsulfonyl)azetidine-1-carbonyl)phenyl)-2-methoxybenzenesulfonamide], the Ki amounted to 4.15 µM.

In the case of `COc1ccc(Br)cc1S(=O)(=O)Nc1cc(Cl)cc(C(=O)NCC2CCCO2)c1O` (stereo not shown) [Example J65, 3-((5-Bromo-2-methoxyphenyl)sulfonamido)-5-chloro-2-hydroxy-N-((tetrahydrofuran-2-yl)methyl)benzamide], the inhibition constant Ki was 1.02 µM.

In the case of `O=C(O)c1cc(Cl)cc(NS(=O)(=O)c2cc(Br)ccc2O)c1` [Example J66, 3-((5-Bromo-2-hydroxyphenyl)sulfonamido)-5-chlorobenzoic acid], the affinity corresponds to a Ki of 3.51 µM.

Consider `O=C(Nc1nc[nH]n1)c1cc(Cl)cc(NS(=O)(=O)c2cc(Br)ccc2O)c1` [Example J67, 3-((5-Bromo-2-hydroxyphenyl)sulfonamido)-5-chloro-N-(1H-1,2,4-triazol-3-yl)benzamide], for which the Ki worked out at 0.36 µM.

Regarding `O=C(O)c1cc(C2CC2)cc(NS(=O)(=O)c2cc(Br)ccc2O)c1O` [Example J68, 3-((5-Bromo-2-hydroxyphenyl)sulfonamido)-5-cyclopropyl-2-hydroxybenzoic acid], the affinity, expressed as Ki, was 0.05 µM.

As for `COc1ccc(Br)cc1S(=O)(=O)Nc1cc(C2CC2)cc(C(=O)O)c1O` [Example J69, 3-((5-Bromo-2-methoxyphenyl)sulfonamido)-5-cyclopropyl-2-hydroxybenzoic acid], the Ki was 1.94 µM. This Ki is about 39-fold higher than that of the molecule before.

In turn, `O=C(O)c1cc(C2CC2)cc(NS(=O)(=O)c2cc(Br)cc(Cl)c2O)c1O` [Example J70, 3-((5-Bromo-3-chloro-2-hydroxyphenyl)sulfonamido)-5-cyclopropyl-2-hydroxybenzoic acid] registered a Ki of 0.13 µM.

Consider `COc1cc(Cl)c(Br)cc1S(=O)(=O)Nc1cc(C2CC2)cc(C(=O)O)c1O` [Example J71, 3-((5-Bromo-4-chloro-2-methoxyphenyl)sulfonamido)-5-cyclopropyl-2-hydroxybenzoic acid], for which the inhibition constant Ki came to 2.72 µM.

In turn, `COc1cc(F)c(Br)cc1S(=O)(=O)Nc1cc(C2CC2)cc(C(=O)O)c1O` [Example J72, 3-((5-Bromo-4-fluoro-2-methoxyphenyl)sulfonamido)-5-cyclopropyl-2-hydroxybenzoic acid] gave a Ki of 1.11 µM.

`O=C(O)c1cc(C2CC2)cc(NS(=O)(=O)c2cc(Br)ccc2NC2CC2)c1O` [Example J73, 3-((5-Bromo-2-(cyclopropylamino)phenyl)sulfonamido)-5-cyclopropyl-2-hydroxybenzoic acid] showed a Ki of 5.98 µM.

In turn, `CC(C)CNc1ccc(Br)cc1S(=O)(=O)Nc1cc(C2CC2)cc(C(=O)O)c1O` [Example J74, 3-((5-Bromo-2-(isobutylamino)phenyl)sulfonamido)-5-cyclopropyl-2-hydroxybenzoic acid] yielded a Ki of 3.93 µM. This Ki lies about 1.5-fold lower than the previous one.

Consider `CC(C)[C@@H](C)Nc1ccc(Br)cc1S(=O)(=O)Nc1cc(C2CC2)cc(C(=O)O)c1O` [Example J75, (R)-3-((5-Bromo-2-((3-methylbutan-2-yl)amino)phenyl)sulfonamido)-5-cyclopropyl-2-hydroxybenzoic acid], for which the inhibition constant Ki worked out at 5.17 µM.

Molecule `CC(C)[C@H](C)Nc1ccc(Br)cc1S(=O)(=O)Nc1cc(C2CC2)cc(C(=O)O)c1O` [Example J76, (S)-3-((5-Bromo-2-((3-methylbutan-2-yl)amino)phenyl)sulfonamido)-5-cyclopropyl-2-hydroxybenzoic acid] registered a Ki of 3.24 µM.

`C[C@@H](Nc1ccc(Br)cc1S(=O)(=O)Nc1cc(C2CC2)cc(C(=O)O)c1O)C1CC1` [Example J77, (R)-3-((5-Bromo-2-((1-cyclopropylethyl)amino)phenyl)sulfonamido)-5-cyclopropyl-2-hydroxybenzoic acid] had a Ki of 2.87 µM. The Ki values of the last two molecules are within 1.5-fold of each other.

Molecule `COC[C@H]1CCCN1c1ccc(Br)cc1S(=O)(=O)Nc1cc(C2CC2)cc(C(=O)O)c1O` [Example J78, (R)-3-((5-Bromo-2-(2-(methoxymethyl)pyrrolidin-1-yl)phenyl)sulfonamido)-5-cyclopropyl-2-hydroxybenzoic acid] had a Ki of 3.99 µM.

For the molecule `O=C(O)c1cc(C2CC2)cc(NS(=O)(=O)c2cc(Br)ccc2NCC2CC2)c1O` [Example J79, 3-((5-Bromo-2-((cyclopropylmethyl)amino)phenyl)sulfonamido)-5-cyclopropyl-2-hydroxybenzoic acid], affinity was put at a Ki of 5.27 µM. The Ki values of the last two molecules are within 1.5-fold of each other.

In turn, `NC(=O)c1cc(C2CC2)cc(NS(=O)(=O)c2cc(Br)ccc2O)c1O` [Example J80, 3-((5-Bromo-2-hydroxyphenyl)sulfonamido)-5-cyclopropyl-2-hydroxybenzamide] came in with a Ki of 1.64 µM.
